Test results from article doi:10.1101/2025.09.12.675753, “In search of nonlipogenic ABCA1 inducers (NLAI): precision coregulator TR-FRET identifies diverse signatures for LXR ligands” (bioRxiv, 2025).
Entries after “also recorded” stand apart in the source; their conditions may differ. Read-outs that look alike come from different tables or passages of the source.

Legend:
LXRβ [1] = biological target: T1, LXRβ (Homo sapiens, UniProt P55055); settings: for LXR isoform selectivity, SRC-1 recruitment: LXRβ versus LXRα
T1 sequence (P55055 222-460 limits assumed): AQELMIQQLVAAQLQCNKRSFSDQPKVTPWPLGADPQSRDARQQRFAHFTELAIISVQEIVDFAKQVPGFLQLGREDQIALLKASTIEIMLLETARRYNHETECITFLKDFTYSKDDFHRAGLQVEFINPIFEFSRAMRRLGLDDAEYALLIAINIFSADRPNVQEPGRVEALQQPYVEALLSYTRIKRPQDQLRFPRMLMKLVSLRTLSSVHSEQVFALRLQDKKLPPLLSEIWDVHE

LXRβ [2] = biological target: T1, LXRβ; experiment: Corepressor (NCOR2, SMRT2) binding CRT, LXRβ; settings: absence of coactivator
LXRα [3] = biological target: T2, LXRα (Homo sapiens, UniProt Q13133); settings: ligand alone, normalized to T0 (100%)
T2 sequence (Q13133 209-447 limits assumed): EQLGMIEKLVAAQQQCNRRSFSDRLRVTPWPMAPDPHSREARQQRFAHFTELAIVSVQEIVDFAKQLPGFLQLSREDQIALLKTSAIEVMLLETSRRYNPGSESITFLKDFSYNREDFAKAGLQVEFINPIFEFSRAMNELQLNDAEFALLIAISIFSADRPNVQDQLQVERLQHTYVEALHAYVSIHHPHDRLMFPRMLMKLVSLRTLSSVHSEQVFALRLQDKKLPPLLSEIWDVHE

LXRα [4] = biological target: T2, LXRα; experiment: Corepressor (NCOR2, SMRT2) binding CRT, LXRα; settings: absence of coactivator
HepG2 cells [5] = system: HepG2 cells
[6] = po; cited from earlier work
hamsters = system: hamsters; parameters: method as in PMID 16024916; settings: cited from earlier work
cynomolgus monkeys = system: cynomolgus monkeys; parameters: method as in PMID 16024916; settings: cited from earlier work
LXRα [7] = biological target: T2, LXRα; parameters: NR-LBD with short coregulator peptides as used in the present work; purchased Thermo Fisher Scientific PV4657; method as in PMID 16354658; settings: CRT; cited from earlier work
C57Bl/6 mice = system: C57Bl/6 mice; parameters: method as in PMID 15145986; settings: cited from earlier work
LXRβ [8] = biological target: T1, LXRβ; experiment: Multiplex precision CRT (pCRT), SRC1 and NCoR2, LXRβ; assay type: biochemical; parameters: NR-LBD with short coregulator peptides as used in the present work; purchased Thermo Fisher Scientific PV4660; settings: isoform not given
LXRα [9] = biological target: T2, LXRα; experiment: Multiplex precision CRT (pCRT), SRC1 and NCoR2, LXRα; assay type: biochemical; parameters: NR-LBD with short coregulator peptides as used in the present work; purchased Thermo Fisher Scientific PV4657; settings: isoform not given
PXR = PXR (Homo sapiens, UniProt O75469); experiment: Lanthascreen CRT, SRC1-4 recruitment to PXR; assay type: biochemical; settings: SRC1-4 coactivator
Sequence of PXR (O75469 146-433 limits assumed): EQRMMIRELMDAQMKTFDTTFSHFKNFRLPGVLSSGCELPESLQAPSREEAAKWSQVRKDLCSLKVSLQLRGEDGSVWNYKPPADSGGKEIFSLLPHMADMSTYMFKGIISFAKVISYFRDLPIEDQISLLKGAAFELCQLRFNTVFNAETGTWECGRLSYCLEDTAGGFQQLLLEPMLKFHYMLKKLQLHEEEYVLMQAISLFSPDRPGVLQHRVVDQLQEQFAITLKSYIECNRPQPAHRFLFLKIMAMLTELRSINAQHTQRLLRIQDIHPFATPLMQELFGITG

HepG2 cells [10] = experiment: Cytotoxicity seen in HepG2 cell treatment; settings: higher concentrations
HepG2 cells [11] = system: HepG2 cells; parameters: method as in PMID 28087808; settings: cited from earlier work

CC(CCC(=O)N(C)C)C1CCC2C3CC=C4CC(O)CCC4(C)C3CCC12C (stereo not drawn) [DMHCA, N,N-dimethyl-3β-hydroxy-cholenamide]
LXR isoform selectivity, SRC-1 recruitment (LXRβ [1]): nonselective
NCOR2 binding to LXRβ, ligand effect (LXRβ [2]): little or no effect; also recorded: does not displace NCOR2 from LXRβ in the absence of SRC1
SRC-1 recruitment to LXRα, efficacy relative to T0 (LXRα [3]): partial agonist activity at LXRα
NCOR2 binding to LXRα, ligand effect (LXRα [4]): little or no effect
Cytotoxicity (HepG2 cells [5]): cytotoxic at higher concentrations
Metabolic lability and oral bioavailability [6]: metabolically labile with poor oral bioavailability

O=C(O)Cc1cccc(OCCCN(Cc2cccc(C(F)(F)F)c2Cl)CC(c2ccccc2)c2ccccc2)c1 [GW3965]
Plasma TG, LDL-C and VLDL-C (hamsters): dose-dependent increase
TG and LDL (cynomolgus monkeys): no effect on TG
Concentration for weak recruitment of NCOR1 to LXRα (LXRα [7]): > 1 µM
Liver weight and TGs (C57Bl/6 mice; 3 days treatment, GW3965 even at 100mg/kg/day): no effect on these liver markers
SREBP1c and FAS expression in the liver (C57Bl/6 mice; 3 days treatment): minimal increases in SREBP1c and FAS expression in the liver
ABCA1 expression increase, peripheral macrophages (C57Bl/6 mice; peripheral macrophages): 7 fold
ABCA1 expression increase, small intestine (C57Bl/6 mice; small intestine): 8 fold
Left-shift in the NCOR2 displacement curve, pCRT versus CRT (LXRβ [8]): 100 fold
Left-shift in the NCOR2 displacement curve, pCRT versus CRT (LXRα [9]): 100 fold
PXR agonism/binding in CRT (PXR): no binding to PXR

CC(C)C(O)CC[C@@H](C)[C@H]1CC[C@H]2[C@@H]3CC=C4C[C@@H](O)CC[C@]4(C)[C@H]3CC[C@]12C (stereo partly drawn) [24HC, 24-hydroxycholesterol]
LXR isoform selectivity, SRC-1 recruitment (LXRβ [1]): nonselective
SRC-1 recruitment to LXRβ, efficacy/potency relative to T0 (LXRβ [1]; ligand alone, normalized to T0 (100%)): partial agonist
SRC-1 recruitment to LXRα, efficacy relative to T0 (LXRα [3]): partial agonist
Cytotoxicity (HepG2 cells [10]): cytotoxic at higher concentrations

CN(CC(=O)Nc1ccc(F)c(F)c1F)C(=O)c1ccc2c(c1)OCCO2 [IMB-808]
Lipogenicity in HepG2 cells (HepG2 cells [11]): nonlipogenic in HepG2 cells
